Source: patent publication US20240228488A1 (TAKEDA PHARMACEUTICAL COMPANY LIMITED, priority 2021, published 2024)

Columns and labels:
[1] = target: human activated kallikrein enzyme (Homo sapiens, UniProt P03952); assay: Plasma kallikrein inhibition, fluorogenic PFR-AMC substrate, 500 pM activated kallikrein format; format: biochemical; settings: 500 pM activated kallikrein, 300 uM PFR-AMC, 30 min preincubation, 10 min reaction; read-out: Primary Dose Response Assay: Average EC50
Method in brief: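 Fluorogenic readout (ex 380 / em 460 nm) after 10 min room-temperature reaction with 300 uM Pro-Phe-Arg-AMC substrate, following 30 min preincubation of inhibitors with 500 pM enzyme. Buffer: Tris pH 7.5, EDTA, NaCl, PEG-400, Triton X-100. Values given as EC50 ranges.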

plasma kallikrein = target: T1, plasma kallikrein (Homo sapiens, UniProt P03952); assay: Neat human plasma assay, FXIIa contact pathway-activated, PFR-AMC substrate; format: biochemical; settings: citrated human plasma 78% final, 10 nM human FXIIa, 100 μM PFR-AMC; read-out: Human Plasma Assay: IC90
T1 construct: from tissue
T1 sequence (P03952 391-638 limits assumed): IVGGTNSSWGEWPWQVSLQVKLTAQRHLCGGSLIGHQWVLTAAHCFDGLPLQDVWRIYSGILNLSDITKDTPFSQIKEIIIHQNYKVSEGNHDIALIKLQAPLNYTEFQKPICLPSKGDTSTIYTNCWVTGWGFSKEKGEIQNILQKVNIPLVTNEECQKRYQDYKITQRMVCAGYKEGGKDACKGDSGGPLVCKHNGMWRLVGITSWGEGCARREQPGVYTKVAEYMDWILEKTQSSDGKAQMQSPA
T1 sequence (P03952 20-390 partner limits assumed): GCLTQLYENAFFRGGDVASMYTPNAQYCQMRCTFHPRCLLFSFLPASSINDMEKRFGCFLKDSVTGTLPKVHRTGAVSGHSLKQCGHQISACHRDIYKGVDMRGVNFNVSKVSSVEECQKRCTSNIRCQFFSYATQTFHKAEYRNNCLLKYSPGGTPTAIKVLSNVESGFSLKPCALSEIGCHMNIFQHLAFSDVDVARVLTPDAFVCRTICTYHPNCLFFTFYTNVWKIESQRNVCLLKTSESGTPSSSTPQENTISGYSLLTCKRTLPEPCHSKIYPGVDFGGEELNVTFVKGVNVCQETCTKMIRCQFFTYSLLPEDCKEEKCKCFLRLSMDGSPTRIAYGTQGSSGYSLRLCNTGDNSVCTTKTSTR
Method in brief: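 Compound inhibition of plasma kallikrein measured as PFR-AMC (100 μM) cleavage rate over 5 min at room temperature in 78% citrated human plasma activated with 10 nM FXIIa (Tris pH 7.5 buffer). IC50/IC90 from 4-parameter fit of rate versus inhibitor concentration.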

Chain of human activated kallikrein enzyme (P03952 391-638 limits assumed): as the sequence (P03952 391-638 limits assumed) above
Chain of human activated kallikrein enzyme (P03952 20-390 partner limits assumed): as the sequence (P03952 20-390 partner limits assumed) above

| Structure (SMILES) | EC50 [1] [µM] | IC90 (plasma kallikrein) [µM] |
| --- | --- | --- |
| O=C1CN(c2cc(C3CC3)cn3cc([C@H]4C[C@H](O)CN4c4cc(NC(=O)[C@H]5C[C@@H]5c5cc(Cl)ccn5)ncn4)nc23)C(=O)N1 [Example 475, (1S,2S)-2-(4-chloropyridin-2-yl)-N-(6-((2R,4S)-2-(6-cyclopropyl-8-(2,4-dioxoimidazolidin-1-yl)imidazo[1,2-a]pyridin-2-yl)-4-hydroxypyrrolidin-1-yl)pyrimidin-4-yl)cyclopropane-1-carboxamide] | < 0.001 | < 0.4 |
| COCc1nc(NC(=O)[C@H]2C[C@@H]2c2nccc(C)n2)cc(N[C@H](C)c2cn3cc(C4CC4)cc(N4CC(=O)N(C)C4=O)c3n2)n1 [Example 355, (1S,2S)-N-(6-(((R)-1-(6-cyclopropyl-8-(3-methyl-2,4-dioxoimidazolidin-1-yl)imidazo[1,2-a]pyridin-2-yl)ethyl)amino)-2-(methoxymethyl)pyrimidin-4-yl)-2-(4-methylpyrimidin-2-yl)cyclopropane-1-carboxamide] | < 0.001 | < 0.4 |
| Cc1ccnc([C@H]2C[C@@H]2C(=O)Nc2cc(NCc3cn4cc(C5CC5)cc(N5CC(=O)N(C6COC6)C5=O)c4n3)ncn2)n1 [Example 378, (1S,2S)-N-(6-(((6-cyclopropyl-8-(3-(oxetan-3-yl)-2,4-dioxoimidazolidin-1-yl)imidazo[1,2-a]pyridin-2-yl)methyl)amino)pyrimidin-4-yl)-2-(4-methylpyrimidin-2-yl)cyclopropane-1-carboxamide] | < 0.001 | < 0.4 |
| O=C(Nc1cc(NCc2cn3cc(C4CC4)ccc3n2)nc(=O)[nH]1)[C@H]1C[C@@H]1c1cccc(Cl)c1 [Example 296, (1S,2S)-2-(3-chlorophenyl)-N-(6-(((6-cyclopropylimidazo[1,2-a]pyridin-2-yl)methyl)amino)-2-oxo-2,3-dihydropyrimidin-4-yl)cyclopropane-1-carboxamide] | < 0.001 | 1.5 to 10 |
| CN(C)C1CCN(c2cc(C3CC3)cn3cc(CNc4ccnc(NC(=O)[C@H]5C[C@@H]5c5cccc(Cl)c5)c4)nc23)C1 (stereo partly drawn) [Example I-25, (1S,2S)-2-(3-chlorophenyl)-N-(4-(((6-cyclopropyl-8-(3-(dimethylamino)pyrrolidin-1-yl)imidazo[1,2-a]pyridin-2-yl)methyl)amino)pyridin-2-yl)cyclopropane-1-carboxamide] | < 0.001 | 0.4 to 1.5 |
| CN1CCC(Nc2cc(C3CC3)cn3cc(CNc4cc(NC(=O)[C@H]5C[C@@H]5c5cccc(Cl)c5)ncn4)nc23)CC1 [Example I-5, (1S,2S)-2-(3-chlorophenyl)-N-(6-(((6-cyclopropyl-8-((1-methylpiperidin-4-yl)amino)imidazo[1,2-a]pyridin-2-yl)methyl)amino)pyrimidin-4-yl)cyclopropane-1-carboxamide] | < 0.001 | 0.4 to 1.5 |
| O=C(Nc1cc(NCc2cn3cc(C4CC4)cc(N4CCCC4=O)c3n2)ncn1)[C@H]1C[C@@H]1c1cccc(Cl)c1 [Example 144, (1S,2S)-2-(3-chlorophenyl)-N-(6-(((6-cyclopropyl-8-(2-oxopyrrolidin-1-yl)imidazo[1,2-a]pyridin-2-yl)methyl)amino)pyrimidin-4-yl)cyclopropane-1-carboxamide] | < 0.001 | 0.4 to 1.5 |
| Cc1ccnc([C@H]2C[C@@H]2C(=O)Nc2cc(NCc3cn4cc(C5CC5)cc(-n5[nH]c(=O)n(C)c5=O)c4n3)ncn2)n1 (racemic) [Example 386, rac-(1S*,2S*)-N-(6-(((6-cyclopropyl-8-(4-methyl-3,5-dioxo-1,2,4-triazolidin-1-yl)imidazo[1,2-a]pyridin-2-yl)methyl)amino)pyrimidin-4-yl)-2-(4-methylpyrimidin-2-yl)cyclopropane-1-carboxamide] | 0.001 to 0.01 | 1.5 to 10 |
| Cc1ccnc([C@H]2C[C@@H]2C(=O)Nc2cc(NCc3cn4cc(C5CC5)cc(N5CCOC5=O)c4n3)ncn2)n1 [Example 376, (1S,2S)-N-(6-(((6-cyclopropyl-8-(2-oxooxazolidin-3-yl)imidazo[1,2-a]pyridin-2-yl)methyl)amino)pyrimidin-4-yl)-2-(4-methylpyrimidin-2-yl)cyclopropane-1-carboxamide] | < 0.001 | < 0.4 |
| COCc1cnc(NC(=O)[C@H]2C[C@@H]2c2nccc(C)n2)nc1NCc1cn2cc(C3CC3)cc(N3CC(=O)N(C)C3=O)c2n1 (racemic) [Example 621, rac-(1S*,2S*)—N-(4-(((6-cyclopropyl-8-(3-methyl-2,4-dioxoimidazolidin-1-yl)imidazo[1,2-a]pyridin-2-yl)methyl)amino)-5-(methoxymethyl)pyrimidin-2-yl)-2-(4-methylpyrimidin-2-yl)cyclopropane-1-carboxamide] | < 0.001 | < 0.4 |
| CN1C(=O)CN(c2cc(C3CC3)cn3cc([C@H]4C[C@H](O)CN4c4cc(NC(=O)[C@H]5C[C@@H]5c5cccc(Cl)c5)ncn4)nc23)C1=O [Example 480, (1S,2S)-2-(3-chlorophenyl)-N-(6-((2R,4S)-2-(6-cyclopropyl-8-(3-methyl-2,4-dioxoimidazolidin-1-yl)imidazo[1,2-a]pyridin-2-yl)-4-hydroxypyrrolidin-1-yl)pyrimidin-4-yl)cyclopropane-1-carboxamide] | 0.001 to 0.01 | < 0.4 |
| O=C(Nc1cc(NCc2cn3cc(C4CC4)cc(N4CCN5CCCC5C4)c3n2)ccn1)[C@H]1C[C@@H]1c1cccc(Cl)c1 (stereo partly drawn) [Example I-231, (1S,2S)-2-(3-chlorophenyl)-N-(4-(((6-cyclopropyl-8-(hexahydropyrrolo[1,2-a]pyrazin-2(1H)-yl)imidazo[1,2-a]pyridin-2-yl)methyl)amino)pyridin-2-yl)cyclopropane-1-carboxamide] | < 0.001 | 0.4 to 1.5 |
| O=C(Nc1cc(NCc2cn3cc(C4CC4)cc(N4CCNC4=O)c3n2)ncn1)[C@H]1C[C@@H]1c1cccc(Cl)c1 [Example 309, (1S,2S)-2-(3-chlorophenyl)-N-(6-(((6-cyclopropyl-8-(2-oxoimidazolidin-1-yl)imidazo[1,2-a]pyridin-2-yl)methyl)amino)pyrimidin-4-yl)cyclopropane-1-carboxamide] | < 0.001 | 1.5 to 10 |
| Cc1ccnc([C@H]2C[C@@H]2C(=O)Nc2cc(NCc3cn4cc(C5CC5)cc(N5CCOC5=O)c4n3)ncn2)n1 (racemic) [Example 390, rac-(1S*,2S*)-N-(6-(((6-cyclopropyl-8-(2-oxooxazolidin-3-yl)imidazo[1,2-a]pyridin-2-yl)methyl)amino)pyrimidin-4-yl)-2-(4-methylpyrimidin-2-yl)cyclopropane-1-carboxamide] | < 0.001 | < 0.4 |
| O=C(Nc1cc(NCc2cn3cc(C4CC4)cc(CO)c3n2)ncn1)[C@H]1C[C@@H]1c1cccc(Cl)c1 (racemic) [Example 70, rac-(1S*,2S*)-2-(3-chlorophenyl)-N-(6-(((6-cyclopropyl-8-(hydroxymethyl)imidazo[1,2-α]pyridin-2-yl)methyl)amino)pyrimidin-4-yl)cyclopropane-1-carboxamide] | 0.001 to 0.01 | > 48 |
| O=C(Nc1cc(NCc2cn3cc(C4CC4)cc(N4C(=O)C5CCC4C5)c3n2)ccn1)[C@H]1C[C@@H]1c1cccc(Cl)c1 (stereo partly drawn) [Example 92, (1S,2S)-2-(3-chlorophenyl)-N-(4-(((6-cyclopropyl-8-(3-oxo-2-azabicyclo[2.2.1]heptan-2-yl)imidazo[1,2-a]pyridin-2-yl)methyl)amino)pyridin-2-yl)cyclopropane-1-carboxamide] | < 0.001 | 1.5 to 10 |
